Assay results reported in article PMC8516330 (The AAPS Journal, 2021).

Assay: Encapsulation efficiency of liposomes and lipodisks by RP-HPLC
Settings: for Change of EE in lipodisks compared with liposomes: curcumin D/L 0.01, acyclovir D/L 0.03; for EE% (encapsulation efficiency), D/L 0.1: D/L ratio 0.1 (w/w), N = 3

Structure (SMILES) | Change of EE in lipodisks compared with liposomes | EE% (encapsulation efficiency), D/L 0.1 ([…]) | Encapsulation efficiency, lipodisks D/L 0.01 (D/L ratio 0.01) | Encapsulation efficiency, liposomes D/L 0.01 (liposomes, D/L ratio 0.01) | Encapsulation efficiency, liposomes D/L 0.03 ([…], D/L ratio 0.03, passive loading) | Encapsulation efficiency, lipodisks D/L 0.03 (lipodisks (62% DSPE-PEG2000), D/L ratio 0.03)
Nc1nc2c(ncn2COCCO)c(=O)[nH]1 [Acyclovir, acyclovir] | did not significantly increase | – | – | – | – | –
COc1cc(/C=C/C(=O)CC(=O)/C=C/c2ccc(O)c(OC)c2)ccc1O [Curcumin, curcumin] | remained constant | 11.41% | ~ 82.4% | ~ 82.4% | – | –
C[C@@H]1C[C@H]2[C@@H]3CCC4=CC(=O)C=C[C@]4(C)[C@@]3(F)[C@@H](O)C[C@]2(C)[C@@]1(O)C(=O)CO [Dexamethasone, dexamethasone] | – | 1.49% | 27.46% | – | 2.3% | 9.7%
